Laboratory results from the supplement of paper PMC10307832.

Experiments:
Test in all cases: relative viability (nuclei count vs DMSO), 5 days (fraction); higher = more cells survive
Lapatinib + Linsitinib = compound: CS(=O)(=O)CCNCc1ccc(-c2ccc3ncnc(Nc4ccc(OCc5cccc(F)c5)c(Cl)c4)c3c2)o1 [Lapatinib] + C[C@]1(O)C[C@@H](c2nc(-c3ccc4ccc(-c5ccccc5)nc4c3)c3c(N)nccn32)C1 [Linsitinib] (partner 1 µM)
In short: (§1)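 Lung cancer cell lines were seeded in 1536-well plates and dosed by pin tool the next day, with either a single drug or a fixed anchor-drug dose combined with five library-drug doses (not always all listed) spaced in √10 steps. Five days later, one step fixed the cells and stained their nuclei (final 0.05% Triton X-100, 1% formaldehyde, 1 ug/ml Hoechst), and nuclei were counted on 4× images. Relative viability is the nuclei count in treated wells divided by the count in vehicle wells, and each value is the median of duplicate plates.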

Lapatinib + Trametinib = compound: CS(=O)(=O)CCNCc1ccc(-c2ccc3ncnc(Nc4ccc(OCc5cccc(F)c5)c(Cl)c4)c3c2)o1 [Lapatinib] + CC(=O)Nc1cccc(-n2c(=O)n(C3CC3)c(=O)c3c(Nc4ccc(I)cc4F)n(C)c(=O)c(C)c32)c1 [Trametinib] (partner 0.02 µM)
In short: as §1

Wnt-C59 + Decitabine = compound: CC1=NC=CC(=C1)C2=CC=C(C=C2)CC(=O)NC3=CC=C(C=C3)C4=CN=CC=C4 [Wnt-C59] + Nc1ncn([C@H]2C[C@H](O)[C@@H](CO)O2)c(=O)n1 [Decitabine] (partner 2 µM)
In short: as §1

Lapatinib + Navitoclax = compound: CS(=O)(=O)CCNCc1ccc(-c2ccc3ncnc(Nc4ccc(OCc5cccc(F)c5)c(Cl)c4)c3c2)o1 [Lapatinib] + CC1(C)CCC(c2ccc(Cl)cc2)=C(CN2CCN(c3ccc(C(=O)NS(=O)(=O)c4ccc(N[C@H](CCN5CCOCC5)CSc5ccccc5)c(S(=O)(=O)C(F)(F)F)c4)cc3)CC2)C1 [Navitoclax] (partner 0.5 µM)
In short: as §1

Row | Cell Line | relative viability (Lapatinib + Linsitinib; first compound 0.06325 µM) | relative viability (Lapatinib + Linsitinib; first compound 0.2 µM) | relative viability (Lapatinib + Linsitinib; first compound 0.6325 µM) | relative viability (Lapatinib + Linsitinib; first compound 2 µM) | relative viability (Lapatinib + Trametinib; first compound 0.06325 µM) | relative viability (Lapatinib + Trametinib; first compound 0.2 µM) | relative viability (Lapatinib + Trametinib; first compound 0.6325 µM) | relative viability (Lapatinib + Trametinib; first compound 2 µM) | relative viability (Wnt-C59 + Decitabine; first compound 0.001 µM) | relative viability (Wnt-C59 + Decitabine; first compound 0.01 µM) | relative viability (Wnt-C59 + Decitabine; first compound 0.03162 µM) | relative viability (Wnt-C59 + Decitabine; first compound 0.1 µM) | relative viability (Lapatinib + Navitoclax; first compound 0.06325 µM) | relative viability (Lapatinib + Navitoclax; first compound 0.2 µM) | relative viability (Lapatinib + Navitoclax; first compound 0.6325 µM) | relative viability (Lapatinib + Navitoclax; first compound 2 µM) | relative viability (Lapatinib + Linsitinib; first compound 0.02 µM) | relative viability (Lapatinib + Trametinib; first compound 0.02 µM) | relative viability (Lapatinib + Navitoclax; first compound 0.02 µM)
1 | NCI-H1734 | 0.729 | 0.946 | 0.858 | 0.745 | 0.548 | 0.626 | 0.691 | 0.721 | 0.501 | 0.452 | 0.558 | 0.523 | 0.691 | 0.802 | 0.88 | 0.778 | – | – | –
2 | NCI-H1666 | 0.681 | 0.704 | 0.611 | 0.248 | 0.718 | 0.727 | 0.674 | 0.501 | 0.753 | 0.73 | 0.732 | 0.767 | 0.724 | 0.737 | 0.464 | 0.217 | 0.822 | 0.722 | 0.794
3 | BEN | 0.858 | 0.878 | 0.769 | 0.8 | 0.898 | 1.05 | 0.931 | 0.999 | 0.667 | 0.741 | 0.807 | 0.782 | 0.0706 | 0.061 | 0.0751 | 0.0557 | 0.91 | 1.05 | 0.0643
4 | ChaGo-K-1 | – | – | – | – | 0.918 | 0.9 | 0.868 | 0.894 | 0.56 | 0.484 | 0.534 | 0.534 | 1.15 | 0.781 | 0.99 | 0.457 | – | 0.868 | –
5 | SK-MES-1 | 1.01 | 0.97 | 0.69 | 0.663 | 0.446 | 0.425 | 0.339 | 0.275 | 0.386 | 0.403 | 0.366 | 0.355 | – | 1.25 | 0.783 | 0.573 | 1.12 | 0.512 | 1.13
6 | NCI-H3122 | 0.954 | 0.996 | 1.04 | 0.999 | 0.203 | 0.207 | 0.218 | 0.248 | 0.453 | 0.477 | 0.476 | 0.385 | 1 | 1.01 | 0.968 | 1.01 | 0.996 | 0.256 | 1.01
7 | NCI-H1563 | 1.13 | 1.03 | 1.2 | 1.12 | – | – | – | – | – | – | – | – | – | – | – | – | 1.12 | – | –
8 | CAL-12T | 0.83 | 0.634 | 0.725 | 0.579 | 0.257 | 0.313 | 0.29 | 0.203 | – | – | – | – | 1.23 | 1.32 | 1.03 | 0.724 | 0.761 | 0.308 | 1.18
9 | NCI-H1975 | 0.927 | 0.954 | 0.853 | 0.694 | 0.282 | 0.328 | 0.384 | 0.254 | 0.419 | 0.385 | 0.423 | 0.38 | 1.09 | 1.04 | 0.918 | 0.867 | 0.843 | 0.264 | 0.993
10 | NCI-H2009 | 1.22 | 1.22 | 1.18 | 1.09 | 0.236 | 0.295 | 0.294 | 0.268 | 0.35 | 0.442 | 0.352 | 0.379 | 1.21 | 1.21 | 1.17 | 1.14 | 1.22 | 0.266 | 1.11
11 | LC-2-ad | 0.817 | 0.799 | 0.694 | 0.585 | 0.804 | 0.906 | 0.864 | 0.837 | 0.756 | 0.714 | 0.927 | 0.772 | 0.415 | 0.446 | 0.394 | 0.264 | – | – | –
12 | NCI-H647 | 1.17 | 1.37 | 1.1 | 0.995 | 0.42 | 0.45 | 0.641 | 0.224 | 0.379 | 0.456 | 0.393 | 0.288 | 1.14 | 1.05 | 1.04 | 0.963 | 1.21 | 0.394 | –
13 | HCC-78 | 0.383 | 0.461 | 0.441 | 0.448 | 0.509 | 0.668 | 0.681 | 0.675 | 0.695 | 0.754 | 0.734 | 0.641 | 0.651 | 0.752 | 0.57 | 0.699 | – | – | –
14 | Calu-6 | 0.953 | 0.947 | 0.954 | 0.848 | – | – | – | – | – | – | – | – | 0.812 | 0.91 | 0.819 | 0.764 | 0.891 | – | 0.844
15 | H3255 | 0.767 | 0.783 | 0.693 | 0.196 | 0.49 | 0.623 | 0.516 | 0.25 | 0.62 | 0.601 | 0.668 | 0.515 | 0.512 | 0.37 | 0.464 | 0.111 | 0.92 | – | 0.476
16 | EBC-1 | 0.883 | 0.888 | 0.938 | 0.886 | – | – | – | – | – | – | – | – | 0.361 | 0.457 | 0.337 | 0.265 | 0.904 | – | 0.459
17 | NCI-H1395 | 1.01 | 1.03 | 1.03 | 1.01 | 0.956 | 1.07 | 1.06 | 1.03 | 0.743 | 0.76 | 0.764 | 0.704 | 1.05 | 1.14 | 1.62 | 1.14 | – | – | –
18 | PC-14 | 0.929 | 0.885 | 0.904 | 0.644 | 0.674 | 0.796 | 0.827 | 0.0695 | 0.246 | 0.283 | 0.223 | 0.243 | 0.991 | 0.958 | 0.985 | 0.839 | 0.86 | 0.768 | 0.956
19 | NCI-H522 | – | – | – | – | 0.636 | 0.688 | 0.809 | 0.655 | 0.707 | 0.739 | 0.782 | 0.666 | – | – | – | – | – | – | –
20 | HOP-62 | 0.923 | 0.91 | 0.857 | 1.01 | 0.378 | 0.343 | 0.472 | 0.293 | 0.19 | 0.238 | 0.227 | 0.231 | 0.993 | 1.09 | 1.1 | 0.99 | – | – | 0.672
